In US6355799B1, “Substituted benzene compounds, process for their preparation, and herbicidal and defoliant compositions containing them” (ISK Americas Incorporated, priority 1997, dated 2002):

Columns and labels:
Type in all cases: in vivo
[1] = test system: redroot pigweed (Amaranthus retroflexus, AMARE); assay: Pre-emerge test, greenhouse herbicide activity screening; settings: rated 14 days after application, 0 = no damage, 100 = complete death
Method in brief: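 Compounds in acetone were track-sprayed at 15-1000 g ai/ha (187 l/ha) on sandy loam pots: pre-emerge one day after seeding, post-emerge at 2-3 leaf stage with 0.25% v/v non-ionic surfactant. Phytotoxicity was rated 14 days later on a 0 (no damage) to 100 (complete death) scale.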

[2] = test system: field corn (Zea mays L., var. Dekalb 535, CORN); assay: Post-emerge test, crop safety; settings: post-emerge, 14 days after application, rating scale 0-100
Method in brief: (§1)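 Plants grown in 10 cm pots of sandy loam mix received acetone-dissolved compounds through a moving flat-fan nozzle. Doses ranged from 15 to 1000 g ai/ha. Pre-emerge pots were seeded one day earlier, post-emerge pots 8–21 days earlier. Fourteen days on, each pot was graded 0–100 for damage.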

[3] = test system: upland rice (Oryza sp., var. Tebonnet, RICE); assay: Post-emerge test, crop safety; settings: post-emerge, 14 days after application, rating scale 0-100
Method in brief: as §1

[4] = test system: field corn (Zea mays L., var. Dekalb 535, CORN); assay: Pre-emerge test, crop safety; settings: rated 14 days after application, 0 = no damage, 100 = complete death
Method in brief: (§2)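 Applied at 15–1000 g ai/ha from acetone in 187 l/ha spray volume. Post-emergence applications included 0.25% v/v non-ionic surfactant and reached plants sown 8–21 days before. Pre-emergence applications were incorporated by surface watering. Efficacy or crop damage was rated on a 0–100 scale after 14 days.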

[5] = test system: upland rice (Oryza sp., var. Tebonnet, RICE); assay: Pre-emerge test, crop safety; settings: rated 14 days after application, 0 = no damage, 100 = complete death
Method in brief: as §2

[6] = test system: ivyleaf morningglory (Ipomoea hederacea, IPOHE); assay: Pre-emerge test, greenhouse herbicide activity screening; settings: rated 14 days after application, 0 = no damage, 100 = complete death
Method in brief: (§3)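 Rating: 0–100 visual injury, 14 DAA. Application: acetone, 187 l/ha, 15–1000 g ai/ha, flat-fan track sprayer with nozzle 40–45 cm above soil or canopy. Post-emerge runs used 0.25% v/v surfactant on 2–3 leaf plants.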

[7] = test system: velvetleaf (Abutilon theophrasti, ABUTH); assay: as above; settings: rated 14 days after application, 0 = no damage, 100 = complete death
Method in brief: as §3

[8] = test system: green foxtail (Setaria viridis, SETVI); assay: as above; settings: rated 14 days after application, 0 = no damage, 100 = complete death
Method in brief: as §3

[9] = test system: johnsongrass (Sorghum halepense, SORHA); assay: as above; settings: rated 14 days after application, 0 = no damage, 100 = complete death
Method in brief: as §3

[10] = test system: barnyardgrass (Echinochloa crus-galli, ECHCG); assay: as above; settings: rated 14 days after application, 0 = no damage, 100 = complete death
Method in brief: as §3

[11] = test system: sicklepod (Cassia obtusifolia, CASOB); assay: as above; settings: rated 14 days after application, 0 = no damage, 100 = complete death
Method in brief: as §3

[12] = test system: lambsquarters (Chenopodium album, CHEAL); assay: as above; settings: rated 14 days after application, 0 = no damage, 100 = complete death
Method in brief: as §3

[13] = test system: large crabgrass (Digitaria sanguinalis, DIGSA); assay: as above; settings: rated 14 days after application, 0 = no damage, 100 = complete death
Method in brief: as §3

[14] = test system: ivyleaf morningglory (Ipomoea hederacea, IPOHE); assay: Post-emerge test, greenhouse herbicide activity screening; settings: post-emerge, 14 days after application, rating scale 0-100
Method in brief: (§4)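 Herbicidal damage is scored 0 (none) to 100 (complete plant death) two weeks after a simulated field spray. Rates span 15–1000 g ai/ha, delivered in acetone at 187 l/ha. For post-emergence treatments, plants have 2–3 leaves and the spray carries 0.25% v/v non-ionic surfactant.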

[15] = test system: velvetleaf (Abutilon theophrasti, ABUTH); assay: as above; settings: post-emerge, 14 days after application, rating scale 0-100
Method in brief: as §4

[16] = test system: green foxtail (Setaria viridis, SETVI); assay: as above; settings: post-emerge, 14 days after application, rating scale 0-100
Method in brief: as §4

[17] = test system: johnsongrass (Sorghum halepense, SORHA); assay: as above; settings: post-emerge, 14 days after application, rating scale 0-100
Method in brief: as §4

[18] = test system: redroot pigweed (Amaranthus retroflexus, AMARE); assay: as above; settings: post-emerge, 14 days after application, rating scale 0-100
Method in brief: as §4

[19] = test system: barnyardgrass (Echinochloa crus-galli, ECHCG); assay: as above; settings: post-emerge, 14 days after application, rating scale 0-100
Method in brief: as §4

[20] = test system: sicklepod (Cassia obtusifolia, CASOB); assay: as above; settings: post-emerge, 14 days after application, rating scale 0-100
Method in brief: as §4

[21] = test system: lambsquarters (Chenopodium album, CHEAL); assay: as above; settings: post-emerge, 14 days after application, rating scale 0-100
Method in brief: as §4

[22] = test system: large crabgrass (Digitaria sanguinalis, DIGSA); assay: as above; settings: post-emerge, 14 days after application, rating scale 0-100
Method in brief: as §4

COc1c(Cl)cc(F)c(-n2c(=O)cc(C(F)(F)F)n(C)c2=O)c1NC(=O)C=Cc1ccco1 [2-92]
Pre-emerge Herbicidal Activity, phytotoxicity rating (0-100), AMARE ([1]; 63 g ai/ha): 50
Pre-emerge Herbicidal Activity, phytotoxicity rating (0-100), AMARE ([1]; 250 g ai/ha): 100
phytotoxicity rating CORN ([2]; 63 g ai/ha): 0
phytotoxicity rating CORN ([2]; 250 g ai/ha): 30
phytotoxicity rating RICE ([3]; 63 g ai/ha): 10
phytotoxicity rating RICE ([3]; 250 g ai/ha): 60
Pre-emerge phytotoxicity rating (0-100), crop damage, CORN ([4]; 63 g ai/ha): 0
Pre-emerge phytotoxicity rating (0-100), crop damage, CORN ([4]; 250 g ai/ha): 20
Pre-emerge phytotoxicity rating (0-100), crop damage, RICE ([5]; 63 g ai/ha): 0
Pre-emerge phytotoxicity rating (0-100), crop damage, RICE ([5]; 250 g ai/ha): 10
Pre-emerge Herbicidal Activity, phytotoxicity rating (0-100), IPOHE ([6]; 63 g ai/ha): 30
Pre-emerge Herbicidal Activity, phytotoxicity rating (0-100), IPOHE ([6]; 250 g ai/ha): 100
Pre-emerge Herbicidal Activity, phytotoxicity rating (0-100), ABUTH ([7]; 63 g ai/ha): 100
Pre-emerge Herbicidal Activity, phytotoxicity rating (0-100), ABUTH ([7]; 250 g ai/ha): 100
Pre-emerge Herbicidal Activity, phytotoxicity rating (0-100), SETVI ([8]; 63 g ai/ha): 30
Pre-emerge Herbicidal Activity, phytotoxicity rating (0-100), SETVI ([8]; 250 g ai/ha): 90
Pre-emerge Herbicidal Activity, phytotoxicity rating (0-100), SORHA ([9]; 63 g ai/ha): 0
Pre-emerge Herbicidal Activity, phytotoxicity rating (0-100), SORHA ([9]; 250 g ai/ha): 40
Pre-emerge Herbicidal Activity, phytotoxicity rating (0-100), ECHCG ([10]; 63 g ai/ha): 0
Pre-emerge Herbicidal Activity, phytotoxicity rating (0-100), ECHCG ([10]; 250 g ai/ha): 20
Pre-emerge Herbicidal Activity, phytotoxicity rating (0-100), CASOB ([11]; 63 g ai/ha): 40
Pre-emerge Herbicidal Activity, phytotoxicity rating (0-100), CASOB ([11]; 250 g ai/ha): 100
Pre-emerge Herbicidal Activity, phytotoxicity rating (0-100), CHEAL ([12]; 63 g ai/ha): 100
Pre-emerge Herbicidal Activity, phytotoxicity rating (0-100), CHEAL ([12]; 250 g ai/ha): 100
Pre-emerge Herbicidal Activity, phytotoxicity rating (0-100), DIGSA ([13]; 63 g ai/ha): 0
Pre-emerge Herbicidal Activity, phytotoxicity rating (0-100), DIGSA ([13]; 250 g ai/ha): 20
phytotoxicity rating IPOHE ([14]; 63 g ai/ha): 20
phytotoxicity rating IPOHE ([14]; 250 g ai/ha): 100
phytotoxicity rating ABUTH ([15]; 63 g ai/ha): 100
phytotoxicity rating ABUTH ([15]; 250 g ai/ha): 100
phytotoxicity rating SETVI ([16]; 63 g ai/ha): 0
phytotoxicity rating SETVI ([16]; 250 g ai/ha): 0
phytotoxicity rating SORHA ([17]; 63 g ai/ha): 0
phytotoxicity rating SORHA ([17]; 250 g ai/ha): 0
phytotoxicity rating AMARE ([18]; 63 g ai/ha): 20
phytotoxicity rating AMARE ([18]; 250 g ai/ha): 50
phytotoxicity rating ECHCG ([19]; 63 g ai/ha): 0
phytotoxicity rating ECHCG ([19]; 250 g ai/ha): 0
phytotoxicity rating CASOB ([20]; 63 g ai/ha): 0
phytotoxicity rating CASOB ([20]; 250 g ai/ha): 30
phytotoxicity rating CHEAL ([21]; 63 g ai/ha): 20
phytotoxicity rating CHEAL ([21]; 250 g ai/ha): 80
phytotoxicity rating DIGSA ([22]; 63 g ai/ha): 0
phytotoxicity rating DIGSA ([22]; 250 g ai/ha): 0
